Source: US20210070748A1, “INHIBITORS OF BRUTONS TYROSINE KINASE” (Pharmacyclics LLC, priority 2015, published 2021)

Assays:
Format in all cases: biochemical
BTK-WT = target: T1, BTK-WT (Homo sapiens, UniProt Q06187); assay: Btk in vitro inhibitory activity (one of Method A TR-FRET, Method B electrophoretic mobility shift, Method C radiometric filter binding); conditions: D-compounds panel data; read-out: IC50 BTK-WT
T1 construct: purified from insect cells as a full-length construct containing an N-terminal 6X-His tag; His6 (N); made in house; host or cells: insect cells (baculovirus Sf21 in Method B)
T1 sequence (Q06187 whole entry): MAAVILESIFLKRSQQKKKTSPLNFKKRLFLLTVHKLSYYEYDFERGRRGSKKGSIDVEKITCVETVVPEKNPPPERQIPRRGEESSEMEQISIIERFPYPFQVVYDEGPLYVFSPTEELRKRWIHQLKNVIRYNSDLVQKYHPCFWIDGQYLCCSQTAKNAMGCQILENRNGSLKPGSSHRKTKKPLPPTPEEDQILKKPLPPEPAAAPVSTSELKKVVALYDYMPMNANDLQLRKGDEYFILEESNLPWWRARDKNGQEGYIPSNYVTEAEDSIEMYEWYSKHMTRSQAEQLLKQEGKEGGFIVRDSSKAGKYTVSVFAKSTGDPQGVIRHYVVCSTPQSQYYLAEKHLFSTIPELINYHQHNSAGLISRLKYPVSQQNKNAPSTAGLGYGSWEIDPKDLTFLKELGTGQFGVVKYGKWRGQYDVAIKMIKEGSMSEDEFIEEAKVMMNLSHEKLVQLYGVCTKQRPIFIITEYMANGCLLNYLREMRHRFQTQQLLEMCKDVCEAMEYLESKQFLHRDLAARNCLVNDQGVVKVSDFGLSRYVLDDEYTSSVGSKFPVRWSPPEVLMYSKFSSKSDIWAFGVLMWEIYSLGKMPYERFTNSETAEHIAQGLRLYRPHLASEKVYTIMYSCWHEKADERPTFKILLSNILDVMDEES

LCK = LCK (Homo sapiens, UniProt P06239); assay: Inhibition of a panel of kinases, in vitro HotSpot kinase assay: LCK; conditions: D-compounds panel data; 1 μM ATP; read-out: IC50 LCK
LCK, sequence (P06239 whole entry): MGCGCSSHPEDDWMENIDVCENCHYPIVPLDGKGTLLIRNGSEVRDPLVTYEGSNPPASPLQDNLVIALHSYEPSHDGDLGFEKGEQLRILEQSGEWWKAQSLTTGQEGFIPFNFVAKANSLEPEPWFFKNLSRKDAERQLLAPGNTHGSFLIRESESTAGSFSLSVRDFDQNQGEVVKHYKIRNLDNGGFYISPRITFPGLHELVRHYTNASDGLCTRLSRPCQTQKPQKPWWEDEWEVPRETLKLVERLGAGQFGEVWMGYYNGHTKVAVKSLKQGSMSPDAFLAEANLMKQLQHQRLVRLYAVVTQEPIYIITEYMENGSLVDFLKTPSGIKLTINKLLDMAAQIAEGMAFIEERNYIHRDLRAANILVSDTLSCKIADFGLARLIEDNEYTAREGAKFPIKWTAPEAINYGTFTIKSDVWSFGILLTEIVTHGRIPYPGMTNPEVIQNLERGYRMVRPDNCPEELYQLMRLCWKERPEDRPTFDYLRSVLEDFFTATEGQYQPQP

SRC = SRC (Homo sapiens, UniProt P12931); assay: Inhibition of a panel of kinases, in vitro HotSpot kinase assay: SRC; conditions: D-compounds panel data; 1 μM ATP
SRC, sequence (P12931 whole entry): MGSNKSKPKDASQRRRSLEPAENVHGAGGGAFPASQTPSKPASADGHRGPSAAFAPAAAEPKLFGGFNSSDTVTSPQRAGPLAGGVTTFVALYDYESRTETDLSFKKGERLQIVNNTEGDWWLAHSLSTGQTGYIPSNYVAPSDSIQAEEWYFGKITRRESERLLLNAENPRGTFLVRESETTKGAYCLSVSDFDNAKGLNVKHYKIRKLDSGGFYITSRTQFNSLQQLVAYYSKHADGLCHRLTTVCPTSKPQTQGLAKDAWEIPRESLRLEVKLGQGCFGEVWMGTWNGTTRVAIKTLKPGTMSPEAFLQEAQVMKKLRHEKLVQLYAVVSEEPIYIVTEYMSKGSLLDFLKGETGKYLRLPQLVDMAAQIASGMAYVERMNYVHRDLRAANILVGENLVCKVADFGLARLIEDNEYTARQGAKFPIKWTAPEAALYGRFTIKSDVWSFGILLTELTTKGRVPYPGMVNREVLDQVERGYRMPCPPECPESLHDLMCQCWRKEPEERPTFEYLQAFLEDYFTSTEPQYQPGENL
Method: (§1) The degree of inhibition of a panel of kinases is determined using the in vitro HotSpot kinase assay (purified enzymes, ^33P-ATP, an appropriate substrate and 1 μM ATP).

TEC = target: T2, TEC (Homo sapiens, UniProt P42680); assay: Inhibition of a panel of kinases, in vitro HotSpot kinase assay: TEC; conditions: D-compounds panel data; 1 μM ATP
T2 sequence (P42680 1-631): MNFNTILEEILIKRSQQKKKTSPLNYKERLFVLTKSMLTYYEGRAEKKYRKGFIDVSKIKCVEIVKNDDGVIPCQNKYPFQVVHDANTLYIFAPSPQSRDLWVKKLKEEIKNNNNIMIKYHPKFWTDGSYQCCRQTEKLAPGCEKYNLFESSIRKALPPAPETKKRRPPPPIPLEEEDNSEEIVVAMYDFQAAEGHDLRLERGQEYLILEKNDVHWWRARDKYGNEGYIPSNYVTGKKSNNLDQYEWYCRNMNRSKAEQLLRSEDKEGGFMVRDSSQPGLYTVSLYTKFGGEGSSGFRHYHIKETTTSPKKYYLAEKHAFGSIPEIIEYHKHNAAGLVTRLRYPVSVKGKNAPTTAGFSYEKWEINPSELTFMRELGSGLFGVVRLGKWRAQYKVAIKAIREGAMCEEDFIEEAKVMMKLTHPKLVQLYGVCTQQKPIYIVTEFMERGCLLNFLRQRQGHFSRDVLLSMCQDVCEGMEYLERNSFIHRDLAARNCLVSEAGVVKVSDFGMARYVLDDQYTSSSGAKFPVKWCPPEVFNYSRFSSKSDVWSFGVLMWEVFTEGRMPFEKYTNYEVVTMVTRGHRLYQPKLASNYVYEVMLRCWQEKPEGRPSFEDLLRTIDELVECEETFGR
Method: as §1

| SMILES | IC50 (BTK-WT) | IC50 (LCK) | IC50 (SRC) | IC50 (TEC) |
| --- | --- | --- | --- | --- |
| C[C@@H]1[C@H](NC(=O)c2c[nH]c(C3CC3)n2)CCCN1c1cnc(C(N)=O)c(Nc2cnn(C)c2)n1 [Example D-264, 5-[(2R,3R)-3-(2-cyclopropyl-1H-imidazole-4-amido)-2-methylpiperidin-1-yl]-3-[(1-methyl-1H-pyrazol-4-yl)amino]pyrazine-2-carboxamide] | ≤ 10 nM | 10 to 100 nM | 10 to 100 nM | ≤ 10 nM |
| C[C@@H]1[C@H](NC(=O)c2ccc3nccn3c2)CCCN1c1cnc(C(N)=O)c(Nc2cnn(C)c2)n1 [Example D-266, 5-[(2R,3R)-3-(imidazo[1,2-a]pyridine-6-amido)-2-methylpiperidin-1-yl]-3-[(1-methyl-1H-pyrazol-4-yl)amino]pyrazine-2-carboxamide] | ≤ 10 nM | 10 to 100 nM | 10 to 100 nM | ≤ 10 nM |
| C[C@@H]1[C@H](NC(=O)c2ccc3nn(C)cc3c2)CCCN1c1cnc(C(N)=O)c(Nc2cnn(C)c2)n1 [Example D-267, N-[(2R,3R)-1-{5-carbamoyl-6-[(1-methyl-1H-pyrazol-4-yl)amino]pyrazin-2-yl}-2-methylpiperidin-3-yl]-2-methyl-2H-indazole-5-carboxamide] | ≤ 10 nM | 10 to 100 nM | 10 to 100 nM | ≤ 10 nM |
| C[C@@H]1[C@H](NC(=O)c2ccc(C(N)=O)cc2)CCCN1c1cnc(C(N)=O)c(Nc2cnn(C)c2)n1 [Example D-268, 1-N-[(2R,3R)-1-{5-carbamoyl-6-[(1-methyl-1H-pyrazol-4-yl)amino]pyrazin-2-yl}-2-methylpiperidin-3-yl]benzene-1,4-dicarboxamide] | ≤ 10 nM | 10 to 100 nM | 10 to 100 nM | ≤ 10 nM |
| COCCN(C)Cc1cc(Nc2nc(N3CCC[C@@H](NC(=O)c4ccc(C5CC5)cc4)[C@H]3C)cnc2C(N)=O)sn1 [Example D-269, 5-[(2R,3R)-3-(4-cyclopropylbenzamido)-2-methylpiperidin-1-yl]-3-[(3-{[(2-methoxyethyl)(methyl)amino]methyl}-1,2-thiazol-5-yl)amino]pyrazine-2-carboxamide] | ≤ 10 nM | 100 to 1000 nM | 10 to 100 nM | 100 to 1000 nM |
| COCCn1cc(Nc2nc(N3CCC[C@@H](NC(=O)c4ccc(C5CC5)cc4)[C@H]3C)cnc2C(N)=O)cn1 [Example D-270, 5-[(2R,3R)-3-(4-cyclopropylbenzamido)-2-methylpiperidin-1-yl]-3-{[1-(2-methoxyethyl)-1H-pyrazol-4-yl]amino}pyrazine-2-carboxamide] | ≤ 10 nM | 100 to 1000 nM | 100 to 1000 nM | 100 to 1000 nM |
| Cc1c(Nc2nc(N3CCC[C@@H](NC(=O)c4ccc(C5CC5)cc4)[C@H]3C)cnc2C(N)=O)cnn1C [Example D-271, 5-[(2R,3R)-3-(4-cyclopropylbenzamido)-2-methylpiperidin-1-yl]-3-[(1,5-dimethyl-1H-pyrazol-4-yl)amino]pyrazine-2-carboxamide] | 10 to 100 nM | 1000 to 10000 nM | 1000 to 10000 nM | 1000 to 10000 nM |
| Cc1nn(C)cc1Nc1nc(N2CCC[C@@H](NC(=O)c3ccc(C4CC4)cc3)[C@H]2C)cnc1C(N)=O [Example D-272, 5-[(2R,3R)-3-(4-cyclopropylbenzamido)-2-methylpiperidin-1-yl]-3-[(1,3-dimethyl-1H-pyrazol-4-yl)amino]pyrazine-2-carboxamide] | 10 to 100 nM | > 10000 nM | > 10000 nM | 1000 to 10000 nM |
| CCn1cc(Nc2nc(N3CCC[C@@H](NC(=O)c4ccc(C5CC5)cc4)[C@H]3C)cnc2C(N)=O)cn1 [Example D-273, 5-[(2R,3R)-3-(4-cyclopropylbenzamido)-2-methylpiperidin-1-yl]-3-[(1-ethyl-1H-pyrazol-4-yl)amino]pyrazine-2-carboxamide] | ≤ 10 nM | 100 to 1000 nM | 100 to 1000 nM | 10 to 100 nM |
| C[C@@H]1[C@H](NC(=O)c2ccc(C3CC3)cc2)CCCN1c1cnc(C(N)=O)c(Nc2cnn(C3CCOCC3)c2)n1 [Example D-274, 5-[(2R,3R)-3-(4-cyclopropylbenzamido)-2-methylpiperidin-1-yl]-3-{[1-(oxan-4-yl)-1H-pyrazol-4-yl]amino}pyrazine-2-carboxamide] | ≤ 10 nM | 100 to 1000 nM | 10 to 100 nM | ≤ 10 nM |
| C[C@@H]1[C@H](NC(=O)c2ccc(C3CC3)cc2)CCCN1c1cnc(C(N)=O)c(Nc2cnn(C(F)F)c2)n1 [Example D-275, 5-[(2R,3R)-3-(4-cyclopropylbenzamido)-2-methylpiperidin-1-yl]-3-{[1-(difluoromethyl)-1H-pyrazol-4-yl]amino}pyrazine-2-carboxamide] | ≤ 10 nM | 1000 to 10000 nM | 100 to 1000 nM | 10 to 100 nM |
| C[C@@H]1[C@H](NC(=O)c2ccc(C3CC3)cc2)CCCN1c1cnc(C(N)=O)c(Nc2cnn(C)c2C(F)(F)F)n1 [Example D-276, 5-[(2R,3R)-3-(4-cyclopropylbenzamido)-2-methylpiperidin-1-yl]-3-{[1-methyl-5-(trifluoromethyl)-1H-pyrazol-4-yl]amino}pyrazine-2-carboxamide] | 1000 to 10000 nM | > 10000 nM | > 10000 nM | > 10000 nM |

More lines, now with the values ahead:

| IC50 (BTK-WT) | IC50 (LCK) | IC50 (SRC) | IC50 (TEC) | SMILES |
| --- | --- | --- | --- | --- |
| ≤ 10 nM | 100 to 1000 nM | 10 to 100 nM | ≤ 10 nM | CC(C)n1nnc2cc(C(=O)N[C@@H]3CCCN(c4cnc(C(N)=O)c(Nc5cnn(C)c5)n4)[C@@H]3C)ccc21 [Example D-255, N-[(2R,3R)-1-{5-carbamoyl-6-[(1-methyl-i H-pyrazol-4-yl)amino]pyrazin-2-yl}-2-methylpiperidin-3-yl]-1-(propan-2-yl)-1H-1,2,3-benzotriazole-5-carboxamide] |
| ≤ 10 nM | 10 to 100 nM | 10 to 100 nM | ≤ 10 nM | C[C@@H]1[C@H](NC(=O)c2coc(C3CC3)n2)CCCN1c1cnc(C(N)=O)c(Nc2cnn(C)c2)n1 [Example D-257, 5-[(2R,3R)-3-(2-cyclopropyl-1,3-oxazole-4-amido)-2-methylpiperidin-1-yl]-3-[(1-methyl-1H-pyrazol-4-yl)amino]pyrazine-2-carboxamide] |
| ≤ 10 nM | 100 to 1000 nM | 10 to 100 nM | ≤ 10 nM | C[C@@H]1[C@H](NC(=O)c2ccc3c(c2)CCC(C)(C)O3)CCCN1c1cnc(C(N)=O)c(Nc2cnn(C)c2)n1 [Example D-258, 5-[(2R,3R)-3-(2,2-dimethyl-3,4-dihydro-2H-1-benzopyran-6-amido)-2-methylpiperidin-1-yl]-3-[(1-methyl-1H-pyrazol-4-yl)amino]pyrazine-2-carboxamide] |
| ≤ 10 nM | 10 to 100 nM | 10 to 100 nM | ≤ 10 nM | C[C@@H]1[C@H](NC(=O)c2ccc3cnn(C)c3c2)CCCN1c1cnc(C(N)=O)c(Nc2cnn(C)c2)n1 [Example D-259, N-[(2R,3R)-1-{5-carbamoyl-6-[(1-methyl-1H-pyrazol-4-yl)amino]pyrazin-2-yl}-2-methylpiperidin-3-yl]-1-methyl-1H-indazole-6-carboxamide] |
| ≤ 10 nM | 10 to 100 nM | 10 to 100 nM | ≤ 10 nM | C[C@@H]1[C@H](NC(=O)c2ccc(C3(CO)CC3)cc2)CCCN1c1cnc(C(N)=O)c(Nc2cnn(C)c2)n1 [Example D-260, 5-[(2R,3R)-3-{4-[1-(hydroxymethyl)cyclopropyl]benzamido}-2-methylpiperidin-1-yl]-3-[(1-methyl-1H-pyrazol-4-yl)amino]pyrazine-2-carboxamide] |
| ≤ 10 nM | 10 to 100 nM | 10 to 100 nM | ≤ 10 nM | Cc1nc2cc(C(=O)N[C@@H]3CCCN(c4cnc(C(N)=O)c(Nc5cnn(C)c5)n4)[C@@H]3C)ccc2[nH]1 [Example D-261, N-[(2R,3R)-1-{5-carbamoyl-6-[(1-methyl-1H-pyrazol-4-yl)amino]pyrazin-2-yl}-2-methylpiperidin-3-yl]-2-methyl-1H-1,3-benzodiazole-5-carboxamide] |
| ≤ 10 nM | 10 to 100 nM | 10 to 100 nM | ≤ 10 nM | C[C@@H]1[C@H](NC(=O)c2ccc3[nH]cnc3c2)CCCN1c1cnc(C(N)=O)c(Nc2cnn(C)c2)n1 [Example D-262, N-[(2R,3R)-1-{5-carbamoyl-6-[(1-methyl-1H-pyrazol-4-yl)amino]pyrazin-2-yl}-2-methylpiperidin-3-yl]-1H-1,3-benzodiazole-5-carboxamide] |
| ≤ 10 nM | 10 to 100 nM | 10 to 100 nM | ≤ 10 nM | C[C@@H]1[C@H](NC(=O)c2cc3n(n2)CCC3)CCCN1c1cnc(C(N)=O)c(Nc2cnn(C)c2)n1 [Example D-263, 3-[(1-methyl-1H-pyrazol-4-yl)amino]-5-[(2R,3R)-2-methyl-3-{4H,5H,6H-pyrrolo[1,2-b]pyrazole-2-amido}piperidin-1-yl]pyrazine-2-carboxamide] |
